Where two headings read alike, the source gives them in different places.
Biological target: T1, human TLR9 (Homo sapiens, UniProt Q9NR96)
T1 construct: host or cells: HEK-Blue cells (HEK293-derived reporter line)
T1 sequence (Q9NR96 26-1032): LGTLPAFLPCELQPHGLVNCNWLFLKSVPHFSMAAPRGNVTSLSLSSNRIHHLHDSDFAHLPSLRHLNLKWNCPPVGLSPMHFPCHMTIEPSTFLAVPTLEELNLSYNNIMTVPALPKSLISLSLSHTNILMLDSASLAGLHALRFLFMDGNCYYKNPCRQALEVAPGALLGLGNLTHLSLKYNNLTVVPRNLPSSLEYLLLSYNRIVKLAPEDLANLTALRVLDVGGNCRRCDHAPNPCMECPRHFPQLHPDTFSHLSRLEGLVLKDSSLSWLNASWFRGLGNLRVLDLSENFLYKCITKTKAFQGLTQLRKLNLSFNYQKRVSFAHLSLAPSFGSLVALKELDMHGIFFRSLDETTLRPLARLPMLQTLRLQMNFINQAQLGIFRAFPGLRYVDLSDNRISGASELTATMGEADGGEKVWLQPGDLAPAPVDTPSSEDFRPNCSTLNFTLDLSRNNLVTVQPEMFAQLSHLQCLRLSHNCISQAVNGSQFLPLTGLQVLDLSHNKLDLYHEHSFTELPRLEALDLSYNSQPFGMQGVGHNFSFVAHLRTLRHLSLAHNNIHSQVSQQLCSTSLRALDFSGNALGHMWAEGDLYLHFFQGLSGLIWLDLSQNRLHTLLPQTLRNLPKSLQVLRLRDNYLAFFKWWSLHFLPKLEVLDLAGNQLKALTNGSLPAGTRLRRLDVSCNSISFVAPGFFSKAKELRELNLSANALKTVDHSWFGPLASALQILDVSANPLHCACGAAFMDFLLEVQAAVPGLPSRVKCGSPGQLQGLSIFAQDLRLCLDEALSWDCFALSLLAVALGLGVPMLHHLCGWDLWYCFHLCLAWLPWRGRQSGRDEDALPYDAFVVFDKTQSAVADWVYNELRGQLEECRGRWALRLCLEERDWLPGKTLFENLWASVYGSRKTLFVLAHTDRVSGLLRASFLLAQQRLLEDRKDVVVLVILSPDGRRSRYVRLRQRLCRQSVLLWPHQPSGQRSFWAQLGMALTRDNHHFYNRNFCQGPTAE
Test: TLR9 inhibition reporter assay (HEK-Blue cells, secreted embryonic alkaline phosphatase reporter)
Assay type: cell-based
Outline: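 Cells seeded at 15000 (TLR7), 20,000 (TLR8) or 25,000 (TLR9) per well; compound 0.05 nM–50 μM, 30 min RT pre-incubation. Agonists: gardiquimod 7.5 μM, R848 15.9 μM, ODN2006 5 nM respectively. 22 h, 37 °C; SEAP via HEK-Blue Detection; % inhibition vs agonist+DMSO and known-inhibitor wells.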

[1] = HEK-Blue cells overexpressing human TLR9, stimulated with ODN2006 5 nM, read-out: TLR 9 IC50
[2] = HEK-Blue human TLR9 reporter cells
[3] = HEK-Blue cells overexpressing human TLR9, stimulated with ODN2006 5 nM, 22 hour incubation, reporter readout

Structure (SMILES) | IC50 [1] | IC50 [2] | IC50 [3]
Cc1cc(C2CCN(C3CC4CCC(C3)N4C3CC3)CC2)cc2[nH]c(-c3ccc(S(C)(=O)=O)c(F)c3)nc12 (stereo not drawn) [Example 347, 6-(1-(8-cyclopropyl-8-azabicyclo[3.2.1]octan-3-yl)piperidin-4-yl)-2-(3-fluoro-4-(methylsulfonyl)phenyl)-4-methyl-1H-benzo[d]imidazole] | 44 nM | 44 nM | 
Cc1cc(C2CCN(C3CC4CCC(C3)N4C(C)C)CC2)cc2[nH]c(-c3ccc(S(C)(=O)=O)c(F)c3)nc12 (stereo not drawn) [Example 348, 2-(3-fluoro-4-(methylsulfonyl)phenyl)-6-(1-(8-isopropyl-8-azabicyclo[3.2.1]octan-3-yl)piperidin-4-yl)-4-methyl-1H-benzo[d]imidazole] | 180 nM | 180 nM | 
Cc1cc(C2CCN(C3CC4CCC(C3)N4C3CCC3)CC2)cc2[nH]c(-c3ccc(S(C)(=O)=O)c(F)c3)nc12 (stereo not drawn) [Example 349, 6-(1-(8-cyclobutyl-8-azabicyclo[3.2.1]octan-3-yl)piperidin-4-yl)-2-(3-fluoro-4-(methylsulfonyl)phenyl)-4-methyl-1H-benzo[d]imidazole] | 24 nM | 24 nM | 
Cc1cc(C2CCN(C3CC4CCC(C3)N4C3CCC3)CC2)cc2[nH]c(-c3ccc(S(C)(=O)=O)c(F)c3)nc12 (stereo not drawn) [Example 350, 6-(1-(8-cyclobutyl-8-azabicyclo[3.2.1]octan-3-yl)piperidin-4-yl)-2-(3-fluoro-4-(methylsulfonyl)phenyl)-4-methyl-1H-benzo[d]imidazole] | 55 nM | 55 nM | 
Cc1cc(C2CCN(C3CC4CCC(C3)N4CC3CC3)CC2)cc2[nH]c(-c3ccc(S(C)(=O)=O)c(F)c3)nc12 (stereo not drawn) [Example 351, 6-(1-(8-(cyclopropylmethyl)-8-azabicyclo[3.2.1]octan-3-yl)piperidin-4-yl)-2-(3-fluoro-4-(methylsulfonyl)phenyl)-4-methyl-1H-benzo[d]imidazole] | 48 nM | 48 nM | 
Cc1cc(C2CCN(C3CC4CCC(C3)N4CC3CC3)CC2)cc2[nH]c(-c3ccc(S(C)(=O)=O)c(F)c3)nc12 (stereo not drawn) [Example 352, 6-(1-(8-(cyclopropylmethyl)-8-azabicyclo[3.2.1]octan-3-yl)piperidin-4-yl)-2-(3-fluoro-4-(methylsulfonyl)phenyl)-4-methyl-1H-benzo[d]imidazole] | 26 nM | 26 nM | 
COc1cc(-c2nc3c(C)cc(C4CCN(C5CC6CCC(C5)N6C5CCC5)CC4)cc3[nH]2)cn2ncnc12 (stereo not drawn) [Example 361, 6-(6-(1-(8-cyclobutyl-8-azabicyclo[3.2.1]octan-3-yl)piperidin-4-yl)-4-methyl-1H-benzo[d]imidazol-2-yl)-8-methoxy-[1,2,4]triazolo[1,5-a]pyridine] | 20 nM | 21 nM | 
COc1cc(-c2nc3c(C)cc(C4CCN(C5CC6CCC(C5)N6C(C)C)CC4)cc3[nH]2)cn2ncnc12 (stereo not drawn) [Example 362, 6-(6-(1-(8-isopropyl-8-azabicyclo[3.2.1]octan-3-yl)piperidin-4-yl)-4-methyl-1H-benzo[d]imidazol-2-yl)-8-methoxy-[1,2,4]triazolo[1,5-a]pyridine] | 152 nM | 150 nM | 
Cc1cc(-c2ccc(CCN3CCC(C)(O)CC3)cc2)cc2c1nc(-c1ccc(S(C)(=O)=O)cc1)n2C [Example 366, 1-(4-(1,4-dimethyl-2-(4-(methylsulfonyl)phenyl)-1H-benzo[d]imidazol-6-yl)phenethyl)-4-methylpiperidin-4-ol] | 446 nM |  | 450 nM
CN(C)C1CCN(Cc2ccc(-c3ccc4nc(-c5cc(F)cc(F)c5)n(C)c4c3)cc2)CC1 [Example 381, 1-(4-(2-(3,5-difluorophenyl)-1-methyl-1H-benzo[d]imidazol-6-yl)benzyl)-N,N-dimethylpiperidin-4-amine] | 140 nM |  | 140 nM
CN(C)C1CCN(Cc2ccc(-c3ccc4nc(-c5ccc(F)c(F)c5)n(C)c4c3)cc2)CC1 [Example 382, 1-(4-(2-(3,4-difluorophenyl)-1-methyl-1H-benzo[d]imidazol-6-yl)benzyl)-N,N-dimethylpiperidin-4-amine] | 3240 nM |  | 3.2 nM

Second part, the compound after the results:

IC50 [1] | IC50 [2] | IC50 [3] | Structure (SMILES)
41000 nM |  | 41 nM | CN(C)C1CCN(Cc2ccc(-c3ccc4nc(-c5cccc(S(C)(=O)=O)c5)n(C)c4c3)cc2)CC1 [Example 384, N,N-dimethyl-1-(4-(1-methyl-2-(3-(methylsulfonyl)phenyl)-1H-benzo[d]imidazol-6-yl)benzyl)piperidin-4-amine]
44 nM |  | 44 nM | CC(C)N1CC2(CN(Cc3ccc(-c4cc(F)c5nc(-c6ccc(S(C)(=O)=O)cc6)n(C6CC6)c5c4)cc3)C2)C1 [Example 410, 1-cyclopropyl-4-fluoro-6-(4-((6-isopropyl-2,6-diazaspiro[3.3]heptan-2-yl)methyl)phenyl)-2-(4-(methylsulfonyl)phenyl)-1H-benzo[d]imidazole]
0.9 nM |  | 0.85 nM | CC(C)CN1CC2(CN(Cc3ccc(-c4cc(F)c5nc(-c6ccc(S(C)(=O)=O)cc6)n(C6CC6)c5c4)cc3)C2)C1 [Example 411, 1-cyclopropyl-4-fluoro-6-(4-((6-isobutyl-2,6-diazaspiro[3.3]heptan-2-yl)methyl)phenyl)-2-(4-(methylsulfonyl)phenyl)-1H-benzo[d]imidazole]
77 nM |  | 77 nM | CS(=O)(=O)c1ccc(-c2nc3c(F)cc(-c4ccc(CN5CC6(C5)CN(C5CCOCC5)C6)cc4)cc3n2C2CC2)cc1 [Example 412, 1-cyclopropyl-4-fluoro-2-(4-(methylsulfonyl)phenyl)-6-(4-((6-(tetrahydro-2H-pyran-4-yl)-2,6-diazaspiro[3.3]heptan-2-yl)methyl)phenyl)-1H-benzo[d]imidazole]
 |  | 1800 nM | Cc1cc(-c2ccc(CN3CCN(CC(C)C)CC3)cc2)cc2c1nc(-c1ccc(S(C)(=O)=O)cc1)n2C [Example 414, 6-(4-((4-isobutylpiperazin-1-yl)methyl)phenyl)-1,4-dimethyl-2-(4-(methylsulfonyl)phenyl)-1H-benzo[d]imidazole]
65 nM |  | 65 nM | CC(C)CN1CCC(N2CCC(c3ccc4nc(-c5ccc(S(C)(=O)=O)cc5)n(C5CC5)c4c3F)CC2)CC1 [Example 415, 1-cyclopropyl-7-fluoro-6-(1′-isobutyl-[1,4′-bipiperidin]-4-yl)-2-(4-(methylsulfonyl)phenyl)-1H-benzo[d]imidazole]
1190 nM |  | 1200 nM | Cc1cc(-c2ccc(OC3CCN(C(C)C)CC3)cc2)cc2c1nc(-c1ccc(S(C)(=O)=O)cc1)n2C [Example 416, 6-(4-((1-isopropylpiperidin-4-yl)oxy)phenyl)-1,4-dimethyl-2-(4-(methylsulfonyl)phenyl)-1H-benzo[d]imidazole]
800 nM |  | 800 nM | Cc1cc(-c2ccc(OC3CCN(CC(C)C)CC3)cc2)cc2c1nc(-c1ccc(S(C)(=O)=O)cc1)n2C [Example 417, 6-(4-((1-isobutylpiperidin-4-yl)oxy)phenyl)-1,4-dimethyl-2-(4-(methylsulfonyl)phenyl)-1H-benzo[d]imidazole]
2510 nM |  | 2500 nM | Cc1cc(CN2CCC(c3cc(C)c4nc(-c5ccc(S(C)(=O)=O)cc5)n(C)c4c3)CC2)cc(C)n1 [Example 418, 6-(1-((2,6-dimethylpyridin-4-yl)methyl)piperidin-4-yl)-1,4-dimethyl-2-(4-(methylsulfonyl)phenyl)-1H-benzo[d]imidazole]

Reference: patent publication US12492188B2, “1H-benzo[D]imidazole derivatives as TLR9 inhibitors for the treatment of fibrosis” (BRISTOL-MYERS SQUIBB COMPANY, priority 2020, dated 2025)
